In one assay the test system is PBMC. To be noted: cited from earlier work.
In assay [1] the test system is peripheral blood CD3+ T cells. Description: TCR/CD3 stimulated proliferation of liposome-transfected CD3+ T cells treated with 8-CPT-cAMP. The format is cell-based, human. To be noted: for Effect of peptide on cAMP dependent inhibition of T cell proliferation: increasing concentrations (25 to 100 μM), 8-CPT-cAMP 6.25 μM, FIG. 9. The procedure:
FIG. 8. Reversal of cAMP-mediated inhibition of TUR/CD3 stimulated T cell proliferation by the use of ribozyme to the RIα subunit of protein kinase A type I. TCR/CD3 stimulated proliferation of peripheral blood CD3+ T cells from normal healthy blood donor following treatment with liposomes alone (mock) or with liposomes and RIα ribozyme (RIα rbz, 10 μM) in the absence (solid bars) and presence (open bars) of 8-CPT-cAMP (12,5 μM).
FIG. 9. Reversal of cAMP-mediated inhibition of TCR/CD3 stimulated T cell proliferation by the use of competitor peptide to compete the TCR/CD3 associated anchoring of RIα subunit of protein kinase A type I in T cells. TCR/CD3 stimulated proliferation of peripheral blood CD3+ T cells from normal healthy blood donor following treatment with liposomes alone (mock) or with increasing concentrations (25 to 100 μM) of a competitor peptide (Ht-31) that competes anchoring, to PKA type II or a control peptide (Ht31-P).
FIG. 10. TCR/CD3 stimulated proliferation of peripheral blood CD3+ T cells in the presence of increasing, concentrations of 8-CPT-cAMP. Normalized levels of proliferation of T cells mock transfected with liposomes only (solid circles, continuous line) or incubated with liposomes and Ht31 peptide (35 μM) to compete anchoring of protein kinase A type I (open circles, dotted line) was assessed as [^3H]-thymidine incorporation after 48 h during which [^3H]-thymidine was added for the last 18 h. Note: right shift of the IC50 (arrow) from 1,8 to 4,8 μM in the presence of […].
When transfected as synthetic RNA ribozyme or as a synthetic RNA ribozyme stabilized by incorporation of 2-deoxycytosine and 2-deoxy-uracil analogs into peripheral blood CD3+ T cells, the ribozyme reduced levels of RIα protein to approximately 20% of control levels by removing the RIα mRNA. By this strategy, the majority of protein kinase A type 1 was removed from the T cells. We then assessed the immune responsiveness of CD3+ T cells transfected with ribozyme compared to control (mock) transfected T cells measured as T cell proliferation after activation of T cells by stimulation of the T cell receptor/CD3 complex (TCR/CD3). In order to simulate a T cell dysfunction as that of HIV infection, with elevated levels of cAMP and increased activation of protein kinase A type 1, we treated normal T cells with low dose (12.5 around IC50) of the cAMP analog 8-(4-chlorophenyl)-thio-cAMPS (8-CPT-cAMP). […] For in vivo use pretreatment of ribozymes to allow cellular uptake or introduction into cells as minigenes will be necessary.
We incubated blood CD3+ T cells with increasing concentrations of Ht31 (SEQ. ID. NO 2) peptide. In order to facilitate uptake, cells were treated with liposomes in the presence or absence of-peptide. The optimal concentrations of DOTAP liposomes and anti-CD3 antibody were titrated carefully in order to maintain the membrane stability and normal TCR/CD3-dependent activation of the T cells. Cells were incubated for 20 hours with DOTAP/peptide and incubations continued in the absence (solid bars) or presence of 8-CPT-cAMP (6.25 μM, hatched bars) and activated to proliferation by stimulation of TCR/CD3 T cell immune responsiveness was assessed as [3H]thymidine incorporation.
Next, the effect of the competitor peptide (Ht-31, 35 μM) on T cell proliferation was examined in the presence of increasing concentrations of 8-CPT-cAMP and compared to mock transfected cells treated with the same concentrations of 8-CPT-cAMP (FIG. 10). As shown previously for normal peripheral blood T cells. […] Compared to the left-shifted curves observed with T cells from HIV-infected patients or patients with CIV due to elevated levels of endogenous cAMP activating PKA type 1, the right-shift observed here would be expected to normalize the situation in patients.

Assay [2] has as its system peripheral blood CD3+ T cells. Kind of assay: TCR/CD3 (anti-CD3) stimulated T cell proliferation, [3H]-thymidine incorporation. It counts as cell-based, human. To be noted: T cells from normal blood donors, FIG. 3A. Here is the method: (§1) Human peripheral blood CD3+ T cells were purified by negative selection from 50 ml of heparin-treated blood from normal healthy donors (Ullevaal University Hospital Blood Center, Oslo. Norway) or patients. Briefly, peripheral blood mononuclear cells were isolated by density gradient (Lymphoprep, NycoMed, Oslo, Norway) centrifugation followed by negative selection using monodisperse magnetic beads directly coated with antibodies to CD14 and CD19 and rat anti-mouse IgG beads coated with antibodies to CD56 and a magnet. Magnetic beads were all from Dynal (Oslo, Norway, cat. no. 111.12, 111.04, and 110.11. respectively) whereas anti-CD56 antibody was from Pharmingen (San Diego, Calif., cat. no. 31660.d). All steps were performed at 4° C.
as §1, with “Peripheral blood” for “Human peripheral blood”, “Center, Oslo,” for “Center, Oslo.”, “selection using,” for “selection using”, “and 110.11,” for “and 110.11.”, “Calif., eat.” for “Calif., cat.”
Proliferation assays were performed by incubation of 0.75×10^6 CM+ T cells/ml in a 100 μl volume in that-bottom 96-well microtiter plates. Activation was achieved by subsequent addition of monodisperse magnetic beads coated with sheep anti-mouse IgG (Dynal. cat. no. 110.02) at a cell:bead ratio of 1:1 followed by addition of antiCD3 (clone SpvT3b) at a final dilution of 1:125,000 for the experiments shown. The optimal concentration of antibody was titrated carefully in the initial setup and parallel experiments at several different dilutions of antibody was always performed. Proliferation was analyzed by incubating, cells for 72 hours during which [^3H]thymidine was included for the last 16 hours. Cells were washed and harvested onto filters using a Scatron harvester (Suffolk, UK) and subsequently analyzed by β-scintillation counting. cAMP analogs, when used, were added 30 min prior to activation by addition of […] antibodies. 8-CPT-cAMP was from Sigorna (St. Louis, Mo.) and Sp- and Rp-8-Br-cAMPS were from BioLog Life Science Company (Bremen, Germany) and were all dissolved to concentrations of 4 to 10 mM in PBS and concentrations calculated using the extinction coefficients given by the manufacturer.
(Dividing cells build labelled thymidine or BrdU into new DNA.)

In a further assay the test system is PKAI isozymes. As to conditions: cited from earlier work.
Another assay concerns PKAII isozymes. As to conditions: cited from earlier work.
For assay [3], the target named is RIα subunit of cAMP-dependent protein kinase A type I (human, UniProt P10644 1-381). Kind of assay: cell-based or functional assay.
RIα subunit of cAMP-dependent protein kinase A type I, sequence (P10644 whole entry): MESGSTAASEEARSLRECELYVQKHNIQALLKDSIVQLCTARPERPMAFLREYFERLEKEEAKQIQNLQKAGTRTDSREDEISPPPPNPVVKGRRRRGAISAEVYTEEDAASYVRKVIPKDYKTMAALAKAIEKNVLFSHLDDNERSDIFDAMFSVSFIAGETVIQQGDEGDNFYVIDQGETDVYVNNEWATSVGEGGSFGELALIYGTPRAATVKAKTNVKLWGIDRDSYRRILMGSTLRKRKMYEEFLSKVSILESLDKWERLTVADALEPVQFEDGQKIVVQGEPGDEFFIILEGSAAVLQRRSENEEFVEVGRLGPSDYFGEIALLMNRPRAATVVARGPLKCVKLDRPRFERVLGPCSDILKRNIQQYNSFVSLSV

Consider `C[C@H]1O[C@@H](n2cnc3c(N)ncnc32)C[C@@H]1O` [ddAdo, 2′,5′ dideoxyadenosine], for which, in the assay with PBMC (PBMC), the “Effect on cell proliferation” value is on record as “increased the cell proliferation” and the “Effect on cellular cAMP levels” value is “reduced cellular cAMP levels”. The Effective concentrations in the assay on PBMC (higher concentrations suppressive or without further effect) is about 6 ng/mL.

Regarding “H2N-Asp-Leu-Ile-Glu-Glu-Ala-Ala-Ser-Arg-Ile-Val-Asp-Ala-Val-Ile-Glu-Gln-Val-Lys-Ala-Ala-Gly-Ala-Tyr-COOH (H-DLIEEAASRIVDAVIEQVKAAGAY-OH) [Ht31]”, the “Effect of peptide on 8-CPT-cAMP inhibition curve” value in assay [1] (35 μM peptide, FIG. 10) is given as “right-shifted inhibition curve”. Besides, the figures for the “Effect of peptide on cAMP dependent inhibition of T cell proliferation” value in assay [1] and in assay [1] (listed as Ht-31) were “reduced sensitivity to cAMP” and “reversed the cAMP dependent inhibition”, respectively.

With `Nc1ncnc2c1nc(Br)n2[C@@H]1O[C@@H]2COP(O)(=S)O[C@@H]2C1O` (some centres unmarked) [Sp-8-Br-cAMPS, Sp-8-Bromo-cAMP-phosphorothioate, reference compound], the “Effect of cAMP agonist on TCR/CD3-stimulated proliferation” value in assay [2] is listed as “inhibited”.

As to `Nc1ncnc2c1ncn2[C@@H]1O[C@@H]2CO[P@@](O)(=S)O[C@H]2[C@H]1O` [Rp-cAMPS, Rp-cAMP-phosphorothioate], the “Mode of action on PKAI isozymes” value in the assay on PKAI isozymes was “full antagonist”. Also, the “Mode of action on PKAII isozymes” value with PKAII isozymes was “partial agonist”.

For H-DLIEEAASRIVDAVIEQVKAAGAY-OH [Ht31 competitor peptide (amino acids 493-515 of the A-kinase anchoring protein (AKAP) Ht31)], in assay [3], the “IC50 of 8-CPT-cAMP for inhibition of TCR/CD3 stimulated T cell proliferation with Ht-31 (35 µM); mock transfected cells had an IC50 around 1.8 µM” value stood at 4.8 µM and the “TCR/CD3 stimulated proliferation of CD3+ T cells ([3H]thymidine incorporation) in the presence of 8-CPT-cAMP (6.25 µM), peptide delivered with DOTAP liposomes” value worked out at 3 fold.

The values above are taken from US7192932B1, “Use of immunomodulating agents” (Lauras AS, priority 1997, dated 2007).
